Measurements reported in PMC9705435, “Thiocarbazate building blocks enable the construction of azapeptides for rapid development of therapeutic candidates” (Nature Communications, 2022).
“Also recorded” adds a separate entry of the source.

Legend:
murine monocytes = test: HMGB1-stimulated TNF release in murine splenic monocytes (ELISA); format: cell-based, mouse; conditions: 0.1, 1 or 10 µM peptide, HMGB1 1 µg/ml, 24 h
Description: 4.2 HMGB1 protein preparation
For TNF ELISA experiments, […]

in vitro = conditions: male, C57BL/6J, mouse, blood
[1] = test system: mouse model of acetaminophen-induced liver toxicity; test: Acetaminophen (APAP)-induced liver toxicity in mice; format: in vivo; conditions: vs scrambled peptide; for liver function enzymes and plasma cytokines / pro-inflammatory markers: APAP 200 mg/kg IP, 50 µg/mouse at 2 and 7 hours post-APAP, 24 h; for protection / survival in APAP toxicity model: APAP 400 mg/kg, 50 µg/mouse IP at 2 h post-APAP, then once a day for 5 days
[2] = test system: STZ-induced type 1 diabetic (T1D) mice; test: Low-dose streptozotocin (STZ)-induced type 1 diabetes in mice; conditions: 500 µg/mouse/day i.p.; for severity of insulitis (insulitis scores): 2 weeks of treatment, H&E; for development of hyperglycemia: vs diabetic (saline) group
Description: Data are presented as means ± SD. […] Mice were simultaneously injected i.p. with saline, FSSE (500 µg/mouse/day), or azaF^1SSazaE^4 (500 µg/mouse/day). Blood glucose was measured on day 0, 7 and 14. Number of mice per group: saline n = 7; FSSE n = 8; azaF^1SSazaE^4 n = 8. Data are presented as mean values ± SEM. […] Serum samples from mice challenged with STZ were collected at day 14 and analyzed by ELISA. n = 7 mice per group. Data are presented as mean values ± SEM. […] Number of islets per group: saline n = 3, 13 islets; FSSE n = 2, 11 islets; azaF^1SSazaE^4 n = 3, 23 islets. P-value was calculated using two-sided Fisher’s exact test to compare islets without (score 0) and with (score 1-4) insulitis. Pancreas tissue was histologically analyzed from 2–3 animals per group. Representative hematoxylin and eosin (H&E) stained images of islets from each group are shown (right panel). Scale bars, 50 μm.
given free access to water and standard rodent chow and were acclimated to their environment for at least 1 week before experimentation.
4.5 STZ-induced type 1 diabetes in mice
Induction of Diabetes T1D was induced by administration of streptozotocin (STZ) (Sigma-Aldrich) (50 mg/kg dissolved in sodium citrate buffer, pH 4.5) to 6-8 weeks old C57Bl/6J mice intraperitoneally (i.p.) once each day for 5 consecutive days.
Mice were given water supplemented with 10% sucrose (Sigma-Aldrich) for six days to prevent sudden hypoglycemia during streptozotocin administration.
of FSSE, azaF1SSazaE4 or saline. Blood glucose with either FreeStyle Lite blood glucose meter (Abbot Diabetes Care, Inc.) or Bayer Contour blood glucose meter (Bayer HealthCare, LLC.) and body weight were measured once weekly. At the end of each study, mice were euthanized by CO2 asphyxiation. Blood and pancreas were collected for further analysis.
Pancreas were fixed in 10% formalin and processed for paraffin embedding (AML Laboratory and Genecopoeia). 7-μm-thick sections were stained with hematoxylin/eosin (Genecopoeia) and the degree of insulitis was eva luated microscopically. Islets were analyzed in multiple sections at 20×.

rats = test: Acute blood pressure monitoring (mean arterial pressure) in anesthetized rats; format: in vivo, rat; conditions: Icatibant 10 µg/kg IV-bolus 15 min before azaF^8-BK
Description: Each grey data point represents one animal. Mean values (with SEM where indicated) for animals given experimental agent were compared with vehicle.
Next, in vivo bioactivity of aza-BK analogues was evaluated in an acute blood pressure monitoring study in rats[61] based on the known blood pressure lowering effect of BK. Briefly, rats were anesthetized and changes in mean arterial blood pressure (MAP) were recorded during intravenous (IV) injection of test agents (6.4 µg/kg) (Fig. 4b).
Statistical analysis. […] Data are presented as means ± SEM unless otherwise stated. Differences between treatment groups were determined by 2-tailed Unpaired t-test; p value less than 0.05 was considered statistically significant. […] P values less than 0.05 were considered statistically significant.
5.2 Surgical procedure and physiological blood pressure measurement
Adult male Sprague Dawley rats (n = 22, weight: 300 – 350 gm; age: 8 – 10 weeks) from Charles River Labs were used under the approval of Institutional Animal Care and Use Committee at The Feinstein Institutes for Medical Research
Rats were anesthetized using isoflurane at 1-3 %. Body temperature was maintained at 37°C using a heating pad. […] All physiological signals were registered using PowerLab, BioAmp and BridgeAmp (ADInstruments, CO, USA), which were recorded on a computer using LabChart v8 software (ADInstruments, CO, USA). […]

## NC(=O)N(CCC(=O)O)NC(=O)[C@H](CO)NC(=O)[C@H](CO)NC(=O)N(N)Cc1ccccc1 [Compound 51, azaF^1SSazaE^4-NH2]
Mouse whole blood
  longer half-life than native FSSE peptide: > 60 fold
Murine monocytes
  HMGB1-induced TNF production: dose-dependently reduced
In vitro
  half-life: > 120 min
[1]
  liver function enzymes and plasma cytokines / pro-inflammatory markers: improved liver function enzymes as well as plasma cytokines
  protection / survival in APAP toxicity model: protective
[1]; listed as azaF1SSazaE4
  liver function enzymes and plasma cytokines / pro-inflammatory markers: reduced APAP-induced pro-inflammatory markers and serum liver enzymes
  protection / survival in APAP toxicity model: improves survival
[2]
  diabetes-induced body weight loss: hindered diabetes-induced body weight loss
  severity of insulitis (insulitis scores): much lower than that of FSSE-treated mice; also recorded: reduced
  development of hyperglycemia: delayed the development of hyperglycemia
[2]; day 7 and 14
  level of blood glucose: significantly attenuated
[2]; day 14, ELISA
  serum levels of insulin: successfully restored

## NC(=O)[C@H](CCC(=O)O)NC(=O)[C@H](CO)NC(=O)[C@H](CO)NC(=O)[C@@H](N)Cc1ccccc1 [FSSE-NH2 (P5779), FSSE-NH2, reference compound]
male, C57BL/6J, mouse, blood
  Ex-vivo stability t 1/2: 2.0 ± 0.06 min
Murine monocytes
  HMGB1-induced TNF production: dose-dependently reduced
In vitro; Ex-vivo stability t 1/2
  half-life: < 2 min
[2]
  severity of insulitis (insulitis scores): reduced
  development of hyperglycemia: no significant effect

## icatibant
rats
  effect of pretreatment on azaF^8-BK (68)-induced lowering of blood pressure: partial inhibition
